In one data set the test system is MDR1. Nature of the data set: Apparent permeability in pig LLC-PK1 cells transfected with MDR1. Format: ADME, cell-based, Sus scrofa.
Data set [1] has as its target T1, Beta-hexosaminidase subunit beta (Homo sapiens, UniProt P07686).
T1 sequence (P07686 whole entry): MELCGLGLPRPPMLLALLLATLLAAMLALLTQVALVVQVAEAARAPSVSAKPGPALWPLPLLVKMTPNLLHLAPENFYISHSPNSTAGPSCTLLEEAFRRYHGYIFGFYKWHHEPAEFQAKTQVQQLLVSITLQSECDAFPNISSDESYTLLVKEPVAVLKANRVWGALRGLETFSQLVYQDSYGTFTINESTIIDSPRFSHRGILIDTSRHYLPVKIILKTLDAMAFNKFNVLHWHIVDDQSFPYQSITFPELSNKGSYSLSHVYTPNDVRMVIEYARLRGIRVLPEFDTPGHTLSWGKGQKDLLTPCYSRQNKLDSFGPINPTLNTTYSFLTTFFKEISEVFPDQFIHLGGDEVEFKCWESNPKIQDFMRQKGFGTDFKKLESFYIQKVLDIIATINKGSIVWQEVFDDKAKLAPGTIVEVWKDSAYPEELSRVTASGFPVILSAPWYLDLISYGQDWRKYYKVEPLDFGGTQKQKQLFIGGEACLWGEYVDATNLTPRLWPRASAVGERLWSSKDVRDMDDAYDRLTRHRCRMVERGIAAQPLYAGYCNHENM
Put plainly: Inhibition of human beta hexosaminidase assessed as inhibitory constant using 4-methylumbelliferyl N-acetyl-beta-D-glucosaminide dihydrate as substrate measured every 60 sec for 45 mins by fluorescence spectrophotometry.

Data set [2] in a line: AUCN in Wistar Han rat at 3 mg/kg, po. It is filed as ADME, organism-based. The note with it: in vivo.
Data set [3] can be described thus: Clearance in Wistar Han rat at 2 mg/kg, iv. Format: ADME, organism-based. The following applies: in vivo.
Data set [4] in a line: Half life in Wistar Han rat at 2 mg/kg, iv. It is filed as ADME, organism-based. The following applies: in vivo.
The nature of data set [5]: Volume of distribution at steady state in Wistar Han rat at 2 mg/kg, iv or 3 mg/kg, po. The following applies: in vivo, read-out: Vdss. Format: ADME, organism-based.
Data set [6] is described as follows: Oral bioavailability in Wistar Han rat at 3 mg/kg. Format: ADME, organism-based. The following applies: in vivo.
The target in data set [7] is T2, Protein O-GlcNAcase (Homo sapiens, UniProt O60502).
T2 sequence (O60502 whole entry): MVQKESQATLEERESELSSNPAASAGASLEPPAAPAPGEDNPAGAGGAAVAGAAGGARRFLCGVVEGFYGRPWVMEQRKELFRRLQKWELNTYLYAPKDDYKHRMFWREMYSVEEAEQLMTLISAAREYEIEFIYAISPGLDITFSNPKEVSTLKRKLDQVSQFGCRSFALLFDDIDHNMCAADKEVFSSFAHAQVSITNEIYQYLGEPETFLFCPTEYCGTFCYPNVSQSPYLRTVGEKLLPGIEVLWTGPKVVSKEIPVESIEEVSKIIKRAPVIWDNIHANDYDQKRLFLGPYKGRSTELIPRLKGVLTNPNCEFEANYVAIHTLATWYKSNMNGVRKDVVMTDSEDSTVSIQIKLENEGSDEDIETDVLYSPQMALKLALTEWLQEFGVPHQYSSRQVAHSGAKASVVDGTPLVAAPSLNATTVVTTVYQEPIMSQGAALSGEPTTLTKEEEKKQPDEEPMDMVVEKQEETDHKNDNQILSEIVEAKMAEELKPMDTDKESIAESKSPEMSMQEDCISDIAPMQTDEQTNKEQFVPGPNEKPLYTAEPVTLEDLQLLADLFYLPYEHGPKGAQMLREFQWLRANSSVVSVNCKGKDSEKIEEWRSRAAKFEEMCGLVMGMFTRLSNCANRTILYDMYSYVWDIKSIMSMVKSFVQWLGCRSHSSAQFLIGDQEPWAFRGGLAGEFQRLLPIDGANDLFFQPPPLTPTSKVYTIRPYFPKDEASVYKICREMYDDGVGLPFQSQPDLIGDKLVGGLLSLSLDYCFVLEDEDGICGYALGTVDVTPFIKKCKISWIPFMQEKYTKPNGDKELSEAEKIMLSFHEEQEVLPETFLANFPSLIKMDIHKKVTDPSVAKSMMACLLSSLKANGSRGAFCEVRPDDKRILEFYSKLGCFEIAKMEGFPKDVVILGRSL
Put plainly: Inhibition of recombinant human OGA.

The target of data set [8] is T3, Protein O-GlcNAcase (Rattus norvegicus, UniProt Q8VIJ5).
T3 sequence (Q8VIJ5 whole entry): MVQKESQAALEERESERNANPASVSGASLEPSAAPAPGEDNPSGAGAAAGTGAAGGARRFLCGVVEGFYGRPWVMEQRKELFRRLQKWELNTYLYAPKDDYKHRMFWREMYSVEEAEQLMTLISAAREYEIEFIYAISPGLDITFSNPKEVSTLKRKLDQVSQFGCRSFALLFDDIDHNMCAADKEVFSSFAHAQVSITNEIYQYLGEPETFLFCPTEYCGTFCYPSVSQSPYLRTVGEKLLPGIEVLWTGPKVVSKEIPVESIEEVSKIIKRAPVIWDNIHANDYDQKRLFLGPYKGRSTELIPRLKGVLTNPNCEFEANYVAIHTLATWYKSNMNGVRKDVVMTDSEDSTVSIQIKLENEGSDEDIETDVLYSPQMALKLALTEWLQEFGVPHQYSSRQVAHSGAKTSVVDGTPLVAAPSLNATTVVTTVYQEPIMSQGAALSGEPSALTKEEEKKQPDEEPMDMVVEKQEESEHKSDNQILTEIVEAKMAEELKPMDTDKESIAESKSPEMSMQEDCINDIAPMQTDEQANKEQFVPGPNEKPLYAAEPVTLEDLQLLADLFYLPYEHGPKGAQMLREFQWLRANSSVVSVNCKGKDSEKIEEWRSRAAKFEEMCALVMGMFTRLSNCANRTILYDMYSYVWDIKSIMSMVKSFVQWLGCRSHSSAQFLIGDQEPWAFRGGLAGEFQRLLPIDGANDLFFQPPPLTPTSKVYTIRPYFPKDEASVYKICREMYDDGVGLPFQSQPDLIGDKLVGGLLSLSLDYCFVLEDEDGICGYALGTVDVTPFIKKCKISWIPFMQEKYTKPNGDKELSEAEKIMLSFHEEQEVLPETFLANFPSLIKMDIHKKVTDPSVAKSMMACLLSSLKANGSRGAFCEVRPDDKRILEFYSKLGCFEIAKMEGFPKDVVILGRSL
Put plainly: Inhibition of OGA in rat PC12 cells assessed as OGlcNAcylated protein level incubated for 24 hrs by ELISA. It is filed as cell-based. Background: In an ELISA, binding on a coated surface is turned into a signal by an enzyme label.

Bounds are passed on as bounds.

The term Papp denotes the rate of passage across a membrane or cell layer, normalised by area and donor concentration. The term Ki denotes a dissociation constant, usually derived from enzyme kinetics or from competition with a known ligand. The clearance is the volume of plasma or blood freed of the substance per unit of time. High values mean a high capacity for elimination, low ones a low capacity for elimination. As usually defined, the half-life is the time in which the quantity being followed falls by half. Read a high half-life as slow decline. What is called EC50 is the concentration needed to bring the measured effect to its halfway point.

Consider `C=CCN(C)C1=N[C@@H]2[C@@H](O)[C@H](O)[C@@H](CO)O[C@@H]2S1`, for which the Papp with MDR1 worked out at 0.8 ×10⁻⁶ cm/s. Further, the Ki in [1] worked out at 4500 nM. This compound also gave an AUC/dose in data set [2] of 0.538 µM·kg·h/mg. The compound further registered a clearance in data set [3] of 45.8 mL/min/kg. The compound further had a half-life in [4] of 4.03 h. Also, the Vd in data set [5] stood at 16.1 L/kg. The bioavailability in data set [6] was found to be 108%.

Consider `OC[C@H]1O[C@@H]2SC(N3CC(F)C3)=N[C@@H]2[C@@H](O)[C@@H]1O`, for which, on Protein O-GlcNAcase [7], the Ki is above 3000 nM.

For the compound `OC[C@H]1O[C@@H]2SC(N3CCCC3)=N[C@@H]2[C@@H](O)[C@@H]1O`, the Ki in data set [1] is above 10000 nM.

As for `CN(C)C1=N[C@@H]2C[C@H](O)[C@@H](CO)O[C@@H]2S1`, in data set [1], the Ki was above 10000 nM. This compound also came in with an AUC/dose in data set [2] of 2.26 µM·kg·h/mg. In [3], this compound showed a clearance of 25.7 mL/min/kg. Besides, the half-life in [4] is 1.95 h. In data set [5], the Vd is 2.49 L/kg. The bioavailability in [6] worked out at 80.1%.

Consider `CNC1=N[C@@H]2[C@@H](F)[C@H](O)[C@@H](CO)O[C@@H]2S1`, for which the results for the Ki (at Protein O-GlcNAcase [7]; in data set [1]) were 3 nM and 8100 nM, respectively. The EC50 at Protein O-GlcNAcase [8] came to 307 nM.

For `CNC1=N[C@@H]2[C@@H](F)[C@H](O)[C@@H](C(F)F)O[C@@H]2S1`, in the data set on MDR1, the Papp was determined as 22 ×10⁻⁶ cm/s. Moreover, the Ki at Protein O-GlcNAcase [7] is 58 nM; in data set [1], above 10000 nM.

Regarding `C=CCNC1=N[C@@H]2[C@@H](O)[C@H](O)[C@@H](C(F)F)O[C@@H]2S1`, in the data set on MDR1, the Papp came to 12 ×10⁻⁶ cm/s. The Ki was 74 nM on Protein O-GlcNAcase [7] and above 10000 nM in [1].

For the compound `C=CCNC1=N[C@@H]2[C@@H](O)[C@H](O)[C@@H](CF)O[C@@H]2S1`, the Ki at Protein O-GlcNAcase [7] was 180 nM; in [1], above 10000 nM.

`O[C@H]1[C@H](O)[C@@H](C(F)F)O[C@@H]2SC(N3CCC3)=N[C@H]12`: the apparent permeability coefficient (Papp) in the data set on MDR1 stood at 18 ×10⁻⁶ cm/s. The Ki on Protein O-GlcNAcase [7] was 26 nM; in data set [1], above 10000 nM.

For `CCCNC1=N[C@@H]2C[C@H](O)[C@@H](CO)O[C@@H]2S1`, the Papp in the data set with MDR1 was 2.5 ×10⁻⁶ cm/s. Moreover, the Ki is 50 nM on Protein O-GlcNAcase [7] and above 10000 nM in [1]. The EC50 at Protein O-GlcNAcase [8] came to 224 nM.

For the compound `OC[C@H]1O[C@@H]2SC(N3CC[C@@H](F)C3)=N[C@@H]2[C@@H](O)[C@@H]1O`, the Ki in data set [1] was above 10000 nM.

Regarding `OC[C@H]1O[C@@H]2SC(NCCF)=N[C@@H]2[C@@H](O)[C@@H]1O`, the Papp in the data set with MDR1 was found to be 2.2 ×10⁻⁶ cm/s. For the same compound, the Ki was 5.6 nM at Protein O-GlcNAcase [7] and above 10000 nM in data set [1]. The EC50 on Protein O-GlcNAcase [8] is 509 nM. Further, the AUC/dose in data set [2] came out at 0.903 µM·kg·h/mg. In data set [3], this compound showed a clearance of 33.6 mL/min/kg. Moreover, in [4], the half-life was 1.29 h. Moreover, the Vd in data set [5] is 1.33 L/kg. Besides, the bioavailability in data set [6] was determined as 48.6%.

As for `NC1=N[C@@H]2[C@@H](O)[C@H](O)[C@@H](CF)O[C@@H]2S1`, at Protein O-GlcNAcase [7], the Ki came out at 1200 nM.

Consider `CNC1=N[C@@H]2[C@@H](F)[C@H](O)[C@@H](CF)O[C@@H]2S1`, for which the Ki on Protein O-GlcNAcase [7] is 50 nM; in data set [1] it was above 10000 nM.

On to `O[C@H]1[C@H](O)[C@@H](CF)O[C@@H]2SC(N3CCC3)=N[C@H]12`, for which the Ki is 200 nM on Protein O-GlcNAcase [7] and above 10000 nM in data set [1].

For `NC1=N[C@@H]2[C@@H](O)[C@H](O)[C@@H](C(F)F)O[C@@H]2S1`, the apparent permeability (Papp) in the data set with MDR1 worked out at 9.2 ×10⁻⁶ cm/s. The Ki at Protein O-GlcNAcase [7] is 760 nM; in data set [1] it was above 10000 nM. At Protein O-GlcNAcase [8], the EC50 stood at 2400 nM.

Take `OC[C@H]1O[C@@H]2SC(N3CCCCC3)=N[C@@H]2[C@@H](O)[C@@H]1O`: the Ki on Protein O-GlcNAcase [7] is 1800 nM; in [1], above 10000 nM.

Take `CC1CN(C2=N[C@@H]3[C@@H](O)[C@H](O)[C@@H](CO)O[C@@H]3S2)C1`: the Papp with MDR1 came to 2.4 ×10⁻⁶ cm/s. In addition, the Ki is 72 nM at Protein O-GlcNAcase [7] and above 10000 nM in [1].

On to `CN(C)C1=N[C@@H]2C[C@H](O)[C@@H](C(F)F)O[C@@H]2S1`, for which the Papp with MDR1 amounted to 31 ×10⁻⁶ cm/s. The inhibition constant (Ki) at Protein O-GlcNAcase [7] is above 3000 nM; in data set [1] it was above 10000 nM.

Regarding `NC1=N[C@@H]2C[C@H](O)[C@@H](CO)O[C@@H]2S1`, the inhibitory constant (Ki) at Protein O-GlcNAcase [7] was above 3000 nM; in [1], above 10000 nM.

In the case of `CN(C)C1=N[C@@H]2[C@@H](F)[C@H](O)[C@@H](CO)O[C@@H]2S1`, the inhibitory constant (Ki) at Protein O-GlcNAcase [7] is 41 nM; in [1], above 10000 nM.

For the compound `OC[C@H]1O[C@@H]2SC(N3CCC(F)CC3)=N[C@@H]2[C@@H](O)[C@@H]1O`, the Ki is above 3000 nM on Protein O-GlcNAcase [7] and above 10000 nM in data set [1].

Turning to `CCCNC1=N[C@@H]2[C@@H](F)[C@H](O)[C@@H](CO)O[C@@H]2S1`, the Ki on Protein O-GlcNAcase [7] was 14 nM; in data set [1] it was above 10000 nM. For the same compound, the EC50 at Protein O-GlcNAcase [8] was determined as 445 nM. In [2], this compound returned an AUC/dose of 0.394 µM·kg·h/mg. In [3], the clearance came to 48.1 mL/min/kg. Besides, the half-life in data set [4] is 1.69 h. Also, the Vd in [5] turned out to be 1.92 L/kg. Also, the bioavailability in [6] is 30.1%.
